Values quoted from earlier work as cited in patent publication EP2335686A1, “An aqueous intravenous nanosuspension with reduced adverse effects” (LEK Pharmaceuticals d.d., priority 2009, dated 2011).
Values after ≈ are worked out from the molar mass of the structure shown.

For `CC(C)c1cccc(C(C)C)c1O` [propofol], the “aqueous solubility at room temperature” value is given as 0.0164 µg/mL (≈ 0.092 µM).
